Experimental findings from ChEMBL document CHEMBL3596129, “Osthol and curcumin as inhibitors of human Pgp and multidrug efflux pumps of Staphylococcus aureus: reversing the resistance against frontline antibacterial drugs” (Medchemcomm, 2014) are described below.

For data set [1], the target named is T1, ATP-dependent translocase ABCB1 (Homo sapiens, UniProt P08183). Briefly: Inhibition of P-gp in human LS180 cells at 50 uM after 90 mins by rhodamine123 cell exclusion method. As to conditions: ls180, 1.5 h; call rule not given here. Format: cell-based.
Data set [2] has as its target T1, ATP-dependent translocase ABCB1. As to the kind of experiment: Inhibition of P-gp in human LS180 cells after 90 mins by rhodamine123 cell exclusion method. The format is cell-based.
Data set [3] concerns the target T2, Quinolone resistance protein NorA (Staphylococcus aureus) (UniProt P0A0J7).
T2 sequence (whole entry): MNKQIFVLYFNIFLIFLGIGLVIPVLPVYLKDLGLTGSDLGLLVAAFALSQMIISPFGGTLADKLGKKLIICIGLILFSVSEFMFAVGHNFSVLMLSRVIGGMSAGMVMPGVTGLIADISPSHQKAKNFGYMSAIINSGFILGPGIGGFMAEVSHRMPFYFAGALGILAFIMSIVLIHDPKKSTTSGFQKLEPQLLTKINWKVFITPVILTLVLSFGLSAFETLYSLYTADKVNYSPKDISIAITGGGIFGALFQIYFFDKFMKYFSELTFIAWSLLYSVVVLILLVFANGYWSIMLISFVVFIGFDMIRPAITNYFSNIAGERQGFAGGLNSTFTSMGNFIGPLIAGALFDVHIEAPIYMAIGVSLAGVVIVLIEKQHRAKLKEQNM
As to the kind of experiment: Inhibition of NorA overexpressed in Staphylococcus aureus SA1199B assessed as ciprofloxacin MIC at 25 uM after 24 hrs by broth checkerboard method (reference value: 8 ug/ml).

Data set [4] concerns the target T2, Quinolone resistance protein NorA (Staphylococcus aureus). Briefly: Inhibition of NorA overexpressed in Staphylococcus aureus SA1199B assessed as decrease in ciprofloxacin MIC at 25 uM after 24 hrs by broth checkerboard method relative to control.
The test system of data set [5] is Staphylococcus aureus. Briefly: Inhibition of TetK overexpressed in Staphylococcus aureus K2192 assessed as tetracycline MIC at 25 uM after 24 hrs by broth checkerboard method (reference value: 32 ug/ml).
Data set [6] relates to Staphylococcus aureus. Briefly: Inhibition of TetK overexpressed in Staphylococcus aureus K2192 assessed as decrease in tetracycline MIC at 25 uM after 24 hrs by broth checkerboard method relative to control.
Data set [7] deals with Staphylococcus aureus. Briefly: Inhibition of MsrA overexpressed in Staphylococcus aureus K2191 assessed as erythromycin MIC at 25 uM after 24 hrs by broth checkerboard method (reference value: 64 ug/ml).
Data set [8] relates to Staphylococcus aureus. As to the kind of experiment: Inhibition of MsrA overexpressed in Staphylococcus aureus K2191 assessed as decrease in erythromycin MIC at 25 uM after 24 hrs by broth checkerboard method relative to control.
For data set [9], the target named is T3, Fluoroquinolone resistance protein (Staphylococcus aureus) (UniProt A0A0C5K5S3).
T3 sequence (whole entry): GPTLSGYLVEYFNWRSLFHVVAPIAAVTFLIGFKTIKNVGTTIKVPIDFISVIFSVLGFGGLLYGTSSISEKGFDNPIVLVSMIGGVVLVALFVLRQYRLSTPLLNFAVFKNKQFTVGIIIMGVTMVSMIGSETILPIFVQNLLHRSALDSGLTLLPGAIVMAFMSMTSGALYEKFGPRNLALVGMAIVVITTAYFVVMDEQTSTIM
Briefly: Inhibition of MdeA overexpressed in Staphylococcus aureus Mupr-1 assessed as mupirocin MIC at 25 uM after 24 hrs by broth checkerboard method (reference value: 256 ug/ml).

Data set [10] addresses T3, Fluoroquinolone resistance protein (Staphylococcus aureus). As to the kind of experiment: Inhibition of MdeA overexpressed in Staphylococcus aureus Mupr-1 assessed as decrease in mupirocin MIC at 25 uM after 24 hrs by broth checkerboard method relative to control.

As for `C/C=C(\C)C(=O)OC1c2c(ccc3ccc(=O)oc23)OC(C)(C)C1OC(=O)/C(C)=C/C` (configuration not stated), in data set [1], the “inhibition (INH)” value was “Not Active”. Further, it took 16 µM to reach half-maximal inhibition in data set [2] (IC50). Moreover, the MIC in data set [3] stood at 4 µg/mL; with Staphylococcus aureus [5], 32 µg/mL; in the data set on Staphylococcus aureus [7] it was 64 µg/mL; in data set [9], 256 µg/mL. The fold change (FC) in data set [4] was found to be 2; in the data set with Staphylococcus aureus [6], 0; in the data set with Staphylococcus aureus [8] it was 0; in [10] it was 0.

Regarding `CC(=O)Oc1cc(OC(C)=O)c2ccc(=O)oc2c1CC=C(C)C`, the “inhibition (INH)” value in [1] is reported as “Not Active”. For the same compound, in data set [2], it took 44 µM to reach half-maximal inhibition (IC50). The MIC in data set [3] worked out at 4 µg/mL; in the data set on Staphylococcus aureus [5], 16 µg/mL; in the data set on Staphylococcus aureus [7], 16 µg/mL; in data set [9] it was 256 µg/mL. For the same compound, the fold change (FC) in data set [4] was 2; in the data set with Staphylococcus aureus [6], 2; with Staphylococcus aureus [8], 4; in data set [10], 0.

As for `CC(C)=CCc1c(O)cc(O)c2ccc(=O)oc12`, the “inhibition (INH)” value in [1] is on record as “Not Active”. The MIC worked out at 4 µg/mL in [3], 32 µg/mL with Staphylococcus aureus [5], 64 µg/mL in the data set on Staphylococcus aureus [7] and 256 µg/mL in data set [9]. Also, the fold change (FC) was 2 in data set [4], 0 in the data set on Staphylococcus aureus [6], 0 in the data set on Staphylococcus aureus [8] and 0 in [10].

With `C=CC(C)(C)c1cc2cc3c(cc2oc1=O)OC(C)(C)C=C3`, the “inhibition (INH)” value in data set [1] is given as “Not Active”. The concentration for half-maximal inhibition (IC50) in data set [2] is 15 µM. In addition, the MIC in data set [3] came out at 2 µg/mL; with Staphylococcus aureus [5], 16 µg/mL; with Staphylococcus aureus [7] it was 64 µg/mL; in data set [9], 256 µg/mL. For the same compound, the fold change (FC) in [4] stood at 4; in the data set with Staphylococcus aureus [6], 2; in the data set on Staphylococcus aureus [8], 0; in data set [10] it was 0.

Consider `O=C(/C=C/C=C/c1ccc2c(c1)OCO2)N1CCCCC1`, for which the MIC in data set [3] was found to be 4 µg/mL; with Staphylococcus aureus [5] it was 32 µg/mL; in the data set with Staphylococcus aureus [7], 64 µg/mL; in [9], 256 µg/mL. The fold change (FC) in [4] was 2; in the data set on Staphylococcus aureus [6] it was 0; in the data set with Staphylococcus aureus [8] it was 0; in data set [10], 0.

As for `COc1cc(/C=C/C(=O)CC(=O)/C=C/c2ccc(O)c(OC)c2)ccc1O` [CURCUMIN], the “inhibition (INH)” value in data set [1] is reported as “Not Active”. In [2], 62 µM corresponded to half-maximal inhibition (IC50). Further, the MIC in [3] came out at 1 µg/mL; with Staphylococcus aureus [5], 32 µg/mL; with Staphylococcus aureus [7] it was 64 µg/mL; in data set [9], 256 µg/mL. For the same compound, the fold change (FC) in [4] turned out to be 8; with Staphylococcus aureus [6], 0; with Staphylococcus aureus [8], 0; in data set [10] it was 0.

Take `CC(C)=CCOc1c2occc2cc2ccc(=O)oc12` [PENTOSALEN]: in data set [1], the “inhibition (INH)” value is “Not Active”. The same compound registered an IC50 in data set [2] of 28 µM. For the same compound, the MIC was 4 µg/mL in [3], 32 µg/mL in the data set on Staphylococcus aureus [5], 64 µg/mL in the data set on Staphylococcus aureus [7] and 128 µg/mL in data set [9]. In addition, the fold change (FC) is 2 in data set [4], 0 in the data set on Staphylococcus aureus [6], 0 with Staphylococcus aureus [8] and 2 in data set [10].

As for `COc1c2ccoc2c(OCC=C(C)C)c2oc(=O)ccc12` [PHELLOPTERIN], the “inhibition (INH)” value in [1] was “Not Active”. Also, inhibition in data set [2] was half-maximal at 32 µM (IC50). Besides, the MIC in data set [3] came out at 4 µg/mL; in the data set on Staphylococcus aureus [5], 32 µg/mL; with Staphylococcus aureus [7] it was 32 µg/mL; in data set [9], 256 µg/mL. The fold change (FC) in data set [4] stood at 2; with Staphylococcus aureus [6] it was 0; in the data set with Staphylococcus aureus [8], 2; in data set [10] it was 0.

One may read the IC50 as the concentration at which inhibition is half-maximal. A lower IC50 goes with higher potency.
